In assay [1] the target is T1, ΔF508-CFTR (Homo sapiens, UniProt P13569, DEL508-508).
T1 construct: Primary lung epithelial cells homozygous for the Cystic Fibrosis-causing ΔF508 mutation; endogenous in cells; host or cells: primary human lung (bronchial) epithelial cells homozygous for ΔF508, differentiated at air-liquid interface
The assay is described as follows: hBE equivalent current (Ieq) assay. Format: cell-based. As to conditions: AUC of equivalent chloride current, primary hBE homozygous ΔF508, 24 h treatment. The method, then:
Primary lung epithelial cells homozygous for the Cystic Fibrosis-causing ΔF508 mutation were differentiated for a minimum of 4 weeks in an air-liquid interface on Costar 24 well HTS filter plates prior to the equivalent current (Ieq) measurements. Cells were apically mucus-washed for 30 minutes 24 h prior to treatment with compounds. The basolateral media was removed and replaced with media containing the compound of interest diluted to its final concentration from DMSO stocks. Treated cells were incubated at 37° C. and 5% CO2 for 24 hours. At the end of the treatment period, the media was changed to the Ieq experimental solution for 30 minutes before the experiment and plates are maintained in a CO2-free incubator during this period. The plates containing the cells were then placed in pre-warmed heating blocks at 36° C.±0.5 for 15 minutes before measurements are taken. The transepithelial voltage (VT) and conductance (GT) were measured using a custom 24 channel current clamp (TECC-24) with 24 well electrode manifold. The Ieq assay measurements were made following additions with standardized time periods: • 1. The baseline VT and GT values were measured for approximately 20 minutes. • 2. Benzamil was added to block ENaC for 15 minutes. • 3. Forskolin plus VX-770 were added to maximally activate ΔF508-CFTR for 27 minutes. • 4. Bumetanide was added to inhibit the NaK2Cl cotransporter and shut-off secretion of chloride.
The activity data captured was the area under the curve (AUC) for the traces of the equivalent chloride current. The AUC was collected from the time of the forskolin/VX-770 addition until the inhibition by bumetanide addition. Correction in response to compound treatment was scored as the increase in the AUC for compound-treated samples over that of vehicle-treated samples. The results are shown below in Table 2 (++indicates activity ≧25% run at 10 uM of VX-809 at 1 uM; +indicates activity 10 to <25% run at 10 uM of VX-809 at 1 uM; ** indicates activity ≧200% of VX-809 (1 uM) with compound at 10 uM and VX-809 at 1 uM; * indicates activity 100-200% of VX-809 (1 uM) with compound at 10 uM and VX-809 at 1 uM)

Assay [2] has as its target T1, ΔF508-CFTR. Kind of assay: Ussing measurements. As to conditions: CFTRinh-172 inhibitable short-circuit current, primary hBE homozygous ΔF508, 24 h treatment. Format: cell-based. On the procedure:
As discussed above, Ussing measurements can be used to measure CFTR activity. In this method, primary lung epithelial cells (hBEs) homozygous for the Cystic Fibrosis-causing ΔF508 mutation are differentiated for a minimum of 4 weeks in an air-liquid interface on SnapWell filter plates prior to the Ussing measurements. Cells are apically mucus-washed for 30 minutes prior to treatment with compounds. The basolateral media is removed and replaced with media containing the compound of interest diluted to its final concentration from DMSO stocks. Treated cells are incubated at 37° C. and 5% CO2 for 24 hours. At the end of the treatment period, the cells on filters are transferred to the Ussing chamber and equilibrated for 30 minutes. The short-circuit current is measured in voltage clamp-mode (Vhold=0 mV), and the entire assay is conducted at a temperature of 36° C.-36.5° C. Once the voltages stabilized, the chambers are clamped, and data is recorded by pulse readings every 5 seconds. Following baseline current stabilization, the following additions can be applied and the changes in current and resistance of the cells can be monitored: • 1. Benzamil to the apical chamber to inhibit ENaC sodium channel. • 2. Forskolin to both chambers to activate ΔF508-CFTR by phosphorylation. • 3. Genistein to both chambers to potentiate ΔF508-CFTR channel opening. • 4. CFTRinh-172 to the apical chamber to inhibit ΔF508-CFTR Cl-conductance.
The inhibitable current (that current that is blocked by CFTRinh-172) is measured as the specific activity of the ΔF508-CFTR channel, and increases in response to compound in this activity over that observed in vehicle-treated samples are identified as the correction of ΔF508-CFTR function imparted by the compound tested.

Where [3] appears, read: compound alone at 10 uM, relative to VX-809 at 1 uM.
Setting [4] is: compound at 10 uM together with VX-809 at 1 uM, relative to VX-809 (1 uM).

T1 sequence (P13569 with tags, fused parts or gaps DEL508-508): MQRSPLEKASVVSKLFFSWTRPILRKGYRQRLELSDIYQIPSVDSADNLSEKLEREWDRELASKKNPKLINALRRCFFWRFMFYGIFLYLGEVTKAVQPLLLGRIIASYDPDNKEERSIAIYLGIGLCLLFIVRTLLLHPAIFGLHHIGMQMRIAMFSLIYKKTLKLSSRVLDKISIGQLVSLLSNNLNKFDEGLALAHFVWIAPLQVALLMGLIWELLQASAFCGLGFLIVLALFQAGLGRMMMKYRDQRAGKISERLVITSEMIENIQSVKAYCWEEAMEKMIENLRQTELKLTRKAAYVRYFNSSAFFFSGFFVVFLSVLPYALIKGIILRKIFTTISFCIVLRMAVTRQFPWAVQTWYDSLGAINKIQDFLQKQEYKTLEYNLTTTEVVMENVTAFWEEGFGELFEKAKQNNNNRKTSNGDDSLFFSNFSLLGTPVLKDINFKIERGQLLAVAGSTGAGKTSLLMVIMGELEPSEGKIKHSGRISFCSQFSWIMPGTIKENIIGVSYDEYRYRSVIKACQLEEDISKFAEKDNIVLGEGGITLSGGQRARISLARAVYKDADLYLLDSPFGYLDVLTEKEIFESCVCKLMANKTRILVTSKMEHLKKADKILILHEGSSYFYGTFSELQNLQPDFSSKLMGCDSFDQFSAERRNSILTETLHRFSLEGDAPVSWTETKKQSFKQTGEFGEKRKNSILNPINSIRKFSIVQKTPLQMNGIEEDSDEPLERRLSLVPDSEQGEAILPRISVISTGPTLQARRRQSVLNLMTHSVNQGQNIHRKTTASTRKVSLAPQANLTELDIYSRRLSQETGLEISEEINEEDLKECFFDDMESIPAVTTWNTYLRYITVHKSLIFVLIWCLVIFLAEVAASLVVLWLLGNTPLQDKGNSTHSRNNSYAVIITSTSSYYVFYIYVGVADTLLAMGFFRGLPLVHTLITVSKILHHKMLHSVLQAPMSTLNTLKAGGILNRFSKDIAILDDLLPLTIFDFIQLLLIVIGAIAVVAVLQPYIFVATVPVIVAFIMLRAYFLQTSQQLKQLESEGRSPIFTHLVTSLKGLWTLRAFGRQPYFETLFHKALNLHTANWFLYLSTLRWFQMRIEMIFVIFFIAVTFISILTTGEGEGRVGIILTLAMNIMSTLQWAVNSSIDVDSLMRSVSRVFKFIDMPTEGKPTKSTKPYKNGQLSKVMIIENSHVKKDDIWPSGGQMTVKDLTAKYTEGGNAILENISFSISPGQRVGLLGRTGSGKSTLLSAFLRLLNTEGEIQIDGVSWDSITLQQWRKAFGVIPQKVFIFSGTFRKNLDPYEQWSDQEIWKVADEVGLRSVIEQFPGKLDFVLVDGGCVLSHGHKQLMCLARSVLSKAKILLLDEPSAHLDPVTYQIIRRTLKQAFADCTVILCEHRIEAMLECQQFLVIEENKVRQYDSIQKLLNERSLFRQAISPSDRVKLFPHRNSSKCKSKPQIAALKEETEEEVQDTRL

In the case of `O=C(NCCc1nnc(CO)o1)c1cc(-c2ccccc2)on1` [Compound A1, N-(2-(5-(hydroxymethyl)-1,3,4-oxadiazol-2-yl)ethyl)-5-phenylisoxazole-3-carboxamide], the “Ieq Activity” value was “++ (++indicates activity ≧25% run at 10 uM of VX-809 at 1 uM)” at ΔF508-CFTR [1] (setting [3]); “** (** indicates activity ≧200% of VX-809 (1 uM) with compound at 10 uM and VX-809 at 1 uM)” on ΔF508-CFTR [1] (setting [4]). For the same compound, the Ussing entry at ΔF508-CFTR [2] (setting [3]) is “++ (++indicates activity ≧25% run at 10 uM of VX-809 at 1 uM)”; on ΔF508-CFTR [2] (setting [4]) it was “** (** indicates activity ≧200% of VX-809 (1 uM) with compound at 10 uM and VX-809 at 1 uM)”.

For the compound `O=C(NCCc1nnc(CO)s1)c1cc(-c2ccccc2)on1` [Compound A2, N-(2-(5-(hydroxymethyl)-1,3,4-thiadiazol-2-yl)ethyl)-5-phenylisoxazole-3-carboxamide], the “Ieq Activity” value on ΔF508-CFTR [1] (setting [3]) was “++ (++indicates activity ≧25% run at 10 uM of VX-809 at 1 uM)”; at ΔF508-CFTR [1] (setting [4]), “** (** indicates activity ≧200% of VX-809 (1 uM) with compound at 10 uM and VX-809 at 1 uM)”. Moreover, the Ussing entry at ΔF508-CFTR [2] (setting [3]) was “++ (++indicates activity ≧25% run at 10 uM of VX-809 at 1 uM)”; at ΔF508-CFTR [2] (setting [4]) it was “** (** indicates activity ≧200% of VX-809 (1 uM) with compound at 10 uM and VX-809 at 1 uM)”.

In the case of `C[C@@H](O)c1nnc(CCNC(=O)c2cc(-c3ccccc3)on2)s1` [Compound A13, (R)-N-(2-(5-(1-hydroxyethyl)-1,3,4-thiadiazol-2-yl)ethyl)-5-phenylisoxazole-3-carboxamide], the “Ieq Activity” value at ΔF508-CFTR [1] (setting [4]) is “** (** indicates activity ≧200% of VX-809 (1 uM) with compound at 10 uM and VX-809 at 1 uM)”.

Take `C[C@@H](O)c1nnc(CCNC(=O)c2cc(-c3ccccc3)on2)o1` [Compound A14, (R)-N-(2-(5-(1-hydroxyethyl)-1,3,4-oxadiazol-2-yl)ethyl)-5-phenylisoxazole-3-carboxamide]: the “Ieq Activity” value at ΔF508-CFTR [1] (setting [4]) is “* (* indicates activity 100-200% of VX-809 (1 uM) with compound at 10 uM and VX-809 at 1 uM)”.

Turning to `O=C(NCCc1nnc(COC(F)(F)F)o1)c1cc(-c2ccccc2)on1` [Compound A15, 5-phenyl-N-(2-(5-((trifluoromethoxy)methyl)-1,3,4-oxadiazol-2-yl)ethyl)isoxazole-3-carboxamide], the “Ieq Activity” value at ΔF508-CFTR [1] (setting [4]) was “* (* indicates activity 100-200% of VX-809 (1 uM) with compound at 10 uM and VX-809 at 1 uM)”.

`O=C(NCCc1nnc(COC(F)(F)F)s1)c1cc(-c2ccccc2)on1` [Compound A16, 5-phenyl-N-(2-(5-((trifluoromethoxy)methyl)-1,3,4-thiadiazol-2-yl)ethyl)isoxazole-3-carboxamide]: at ΔF508-CFTR [1] (setting [4]), the “Ieq Activity” value is “* (* indicates activity 100-200% of VX-809 (1 uM) with compound at 10 uM and VX-809 at 1 uM)”.

On to `C[C@H](O)c1nnc(CCNC(=O)c2cc(-c3ccccc3)on2)s1` [Compound A17, (S)-N-(2-(5-(1-hydroxyethyl)-1,3,4-thiadiazol-2-yl)ethyl)-5-phenylisoxazole-3-carboxamide], for which, on ΔF508-CFTR [1] (setting [4]), the “Ieq Activity” value was “** (** indicates activity ≧200% of VX-809 (1 uM) with compound at 10 uM and VX-809 at 1 uM)”. In addition, at ΔF508-CFTR [2] (setting [4]), the Ussing entry is “** (** indicates activity ≧200% of VX-809 (1 uM) with compound at 10 uM and VX-809 at 1 uM)”.

In the case of `C[C@H](O)c1nnc(CCNC(=O)c2cc(-c3ccccc3)on2)o1` [Compound A18, (S)-N-(2-(5-(1-hydroxyethyl)-1,3,4-oxadiazol-2-yl)ethyl)-5-phenylisoxazole-3-carboxamide], on ΔF508-CFTR [1] (setting [4]), the “Ieq Activity” value is “** (** indicates activity ≧200% of VX-809 (1 uM) with compound at 10 uM and VX-809 at 1 uM)”. The Ussing entry on ΔF508-CFTR [2] (setting [4]) is “** (** indicates activity ≧200% of VX-809 (1 uM) with compound at 10 uM and VX-809 at 1 uM)”.

On to `O=C(NCCc1nnc([C@H](O)CO)o1)c1cc(-c2ccccc2)on1` [Compound A19, (R)-N-(2-(5-(1,2-dihydroxyethyl)-1,3,4-oxadiazol-2-yl)ethyl)-5-phenylisoxazole-3-carboxamide], for which the “Ieq Activity” value on ΔF508-CFTR [1] (setting [4]) is “** (** indicates activity ≧200% of VX-809 (1 uM) with compound at 10 uM and VX-809 at 1 uM)”. Besides, the Ussing entry at ΔF508-CFTR [2] (setting [4]) was “** (** indicates activity ≧200% of VX-809 (1 uM) with compound at 10 uM and VX-809 at 1 uM)”.

Take `O=C(NCCc1nnc([C@H](O)CO)s1)c1cc(-c2ccccc2)on1` [Compound A20, (R)-N-(2-(5-(1,2-dihydroxyethyl)-1,3,4-thiadiazol-2-yl)ethyl)-5-phenylisoxazole-3-carboxamide]: the “Ieq Activity” value at ΔF508-CFTR [1] (setting [4]) is “** (** indicates activity ≧200% of VX-809 (1 uM) with compound at 10 uM and VX-809 at 1 uM)”. For the same compound, at ΔF508-CFTR [2] (setting [4]), the Ussing entry is “** (** indicates activity ≧200% of VX-809 (1 uM) with compound at 10 uM and VX-809 at 1 uM)”.

On to `O=C(NCCc1nnc([C@@H](O)CO)s1)c1cc(-c2ccccc2)on1` [Compound A21, (S)-N-(2-(5-(1,2-dihydroxyethyl)-1,3,4-thiadiazol-2-yl)ethyl)-5-phenyl isoxazole-3-carboxamide], for which the “Ieq Activity” value at ΔF508-CFTR [1] (setting [4]) was “** (** indicates activity ≧200% of VX-809 (1 uM) with compound at 10 uM and VX-809 at 1 uM)”. Also, on ΔF508-CFTR [2] (setting [4]), the Ussing entry is “** (** indicates activity ≧200% of VX-809 (1 uM) with compound at 10 uM and VX-809 at 1 uM)”.

Regarding `O=C(NCCc1nnc([C@@H](O)CO)o1)c1cc(-c2ccccc2)on1` [Compound A22, (S)-N-(2-(5-(1,2-dihydroxyethyl)-1,3,4-oxadiazol-2-yl)ethyl)-5-phenyl isoxazole-3-carboxamide carboxamide], the “Ieq Activity” value on ΔF508-CFTR [1] (setting [4]) is “** (** indicates activity ≧200% of VX-809 (1 uM) with compound at 10 uM and VX-809 at 1 uM)”. Further, the Ussing result on ΔF508-CFTR [2] (setting [4]) was “** (** indicates activity ≧200% of VX-809 (1 uM) with compound at 10 uM and VX-809 at 1 uM)”.

As to `O=C(NCCc1nnc(C(O)C(F)(F)F)s1)c1cc(-c2ccccc2)on1` (stereo not drawn) [Compound A23, 5-phenyl-N-(2-(5-(2,2,2-trifluoro-1-hydroxyethyl)-1,3,4-thiadiazol-2-yl)ethyl)isoxazole-3-carboxamide], the “Ieq Activity” value at ΔF508-CFTR [1] (setting [4]) is “** (** indicates activity ≧200% of VX-809 (1 uM) with compound at 10 uM and VX-809 at 1 uM)”.

Consider `CO[C@@H](C)c1nnc(CCNC(=O)c2cc(-c3ccccc3)on2)s1` [Compound A25-a, (S)-N-(2-(5-(1-methoxyethyl)-1,3,4-thiadiazol-2-yl)ethyl)-5-phenylisoxazole-3-carboxamide], for which the “Ieq Activity” value at ΔF508-CFTR [1] (setting [4]) was “** (** indicates activity ≧200% of VX-809 (1 uM) with compound at 10 uM and VX-809 at 1 uM)”.

For the compound `CO[C@H](C)c1nnc(CCNC(=O)c2cc(-c3ccccc3)on2)s1` [Compound A25-b, (R)-N-(2-(5-(1-methoxyethyl)-1,3,4-thiadiazol-2-yl)ethyl)-5-phenylisoxazole-3-carboxamide], on ΔF508-CFTR [1] (setting [4]), the “Ieq Activity” value is “** (** indicates activity ≧200% of VX-809 (1 uM) with compound at 10 uM and VX-809 at 1 uM)”.

The values are drawn from patent US9790219B2, “Compounds, compositions, and methods for increasing CFTR activity” (Proteostasis Therapeutics, Inc., priority 2014, dated 2017).
